Test results reported in patent publication US4990499A, “Anti-herpes simplex virus activity of 5-alkoxymethyl-2'-deoxycytidimes and their 5-monophosphates” (priority 1989, dated 1991).
In brackets after ≈: the same amount, converted by molar mass. Where two headings read alike, the source gives them in different places.

Columns and labels:
[1] = Inhibition of proliferation (MTC), CEM cells; format: cell-based; conditions: human, highest concentration tested
Protocol: (§1) Inhibitory effects of MMdCyd on the proliferation of murine and human tumor cells was also investigated. MTC for MMdCyd was greater than 400 μg/ml (highest concentration tested) against Raji, MOLT/4F, MT4, CEM and H-9 (human) and L1210 (murine Leukemia) cells.

[2] = Cytotoxicity (MTC), Vero cells; format: cell-based; conditions: monkey
Protocol: (§2) The antiviral activity, ^a cyctotoxicity* and antiviral indices of MMdCyd in the presence of H4 dUrd, dGuo and H4 dUrd+dGuo were determined.
(§3) Minimum cytotoxic concentrations (MTC) for MMdCyd was greater than 1,000 μg/ml for RK-13, HEP-2 and Vero cells.
(§4) ^c MTC = Minimum toxic concentration concentration required to
(§5) produce definite evidence of microscopic toxicity on confluent monolayer

[3] = tested on: Vero cells; test: Cytotoxicity (MTC), Vero cells; format: cell-based; conditions: monkey
Protocol: as §2, §3, §4, §5

[4] = Inhibition of proliferation (MTC), MT4 cells; format: cell-based; conditions: human, highest concentration tested
Protocol: as §1

[5] = tested on: HSV-1, KOS; test: HSV-1 KOS infectivity (virus yield) in Vero cells after removal of drugs; format: cell-based, Herpes simplex virus type 1; conditions: for Virus Infectivity (% of virus control): after drug removal, combination with H4 dUrd 530 μM, 4320 min
Protocol: Vero cells were infected with HSV-1, KOS strain and then samples of the infected cells were treated with MMdCyd in various quantities and with MMdCyd in various quantities together with 530 μM of H4 dUrd. Cells were washed twice with 0.4 ml of MEM to remove residual drug, overlaid with growth medium and incubated for 72 h. The virus was harvested by two cycles of freezing and thawing. The culture fluid from each treatment was pooled and assayed for virus yield.
^b H4 dUrd 530 μM (125 μg/ml) was added along with MMdCyd.

[6] = tested on: Herpes simplex virus type 1 (HSV-1); test: Antiviral activity against HSV-1, viral plaque reduction (ED50); format: cell-based
Protocol: Infected cells were treated with different concentrations of MMdCyd and the concentration required to reduce viral plaque formation by 50%, i.e. ED50, was determined.
^a ED50 : Concentration required to reduce viral plaque formatio
Vero cells were infected with the KOS strain of HSV-1. The compound of compounds indicated in Table 2, below, and are shown graphically in FIGS. 1, (H4 dUrd) and 2 (H4 Urd).
^a Antiviral assays were carried out using Vero cells. All compounds
were added immediately after virus infection.
The antiviral activity of MMdCyd in the presence of H4 dUrd was determined against several strains of HSV-1 and HSV-2.
Vero cells were infected with HSV-1, strain 76 and treated with MMdCyd at different times post virus infection.
as §2
^a Antiviral assays were carried out using Vero cells. Compounds were
added immediately after virus infection. Virus HSV1, strains KOS and 76;
KOS, virus input = 50 PFU

[7] = Cytotoxicity (MTC), RK-13 cells; format: cell-based; conditions: rabbit, read-out: minimum cytotoxic concentration (MTC)
Protocol: as §3, §4, §5

[8] = Inhibition of proliferation (MTC), H-9 cells; format: cell-based; conditions: human, highest concentration tested
Protocol: as §1

[9] = Inhibition of proliferation (MTC), Raji cells; format: cell-based; conditions: human, highest concentration tested
Protocol: as §1

[10] = tested on: Herpes simplex virus type 1 (HSV-1); test: Antiviral activity against HSV-1, viral plaque reduction (ED50); format: cell-based; remark: listed apart in the source
[11] = tested on: Deoxynucleoside Triphosphate (dNTP) Pools in Uninfected Vero Cells; test: Deoxynucleoside triphosphate (dNTP) pools in uninfected (mock-infected) Vero cells; format: cell-based; conditions: Table 7, uninfected Vero cells, treatment 7 hours, ± S.E.
How it was run: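 Vero cells were mock-infected for 1 h, then treated with MMdCyd, H4 dUrd, both together, dGUO ± H4 dUrd, or N-methyl-MMdCyd, with untreated cells as control. dNTP pools were measured, and values are means of at least two assays of triplicate cell cultures.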

[12] = Inhibition of proliferation (MTC), MOLT/4F cells; format: cell-based; conditions: human, highest concentration tested
Protocol: as §1

[13] = tested on: HSV-1, KOS; test: HSV-1 KOS infectivity in Vero cells prior to washing of drugs; format: cell-based, Herpes simplex virus type 1; conditions: for Virus Infectivity (% of virus control): combination with H4 dUrd 530 μM
Protocol: Vero cells were infected with HSV-1, KOS strain and then treated with MMdCyd in various quantities, and also with MMdCyd in various quantities together with a constant amount of H4 dUrd. The virus infectivity was observed and the results are given in Table 5 and are shown graphically in FIG. 3.
^a Virus infectivity was scored using following parameters: rounding
of cells, plaque formation and loss of monolayer structure.
^b Concentration of H4 dUrd used was 530 μM (125 μg/ml).

[14] = Inhibition of proliferation (MTC), L1210 cells; format: cell-based, murine; conditions: mouse, highest concentration tested
Protocol: as §1

[15] = Cytotoxicity (MTC), HEP-2 cells; format: cell-based; conditions: human, read-out: minimum cytotoxic concentration (MTC)
Protocol: as §3, §4, §5

## COCc1cn([C@H]2C[C@H](O)[C@@H](CO)O2)c(=O)nc1N [MMdCyd, 5-methoxymethyl-2'-deoxycytidine]
[1]
  MCC: > 400 µg/mL
[2]
  MCC: > 1000 µg/mL
[3]
  MTC (minimum toxic concentration): > 1,000 μg/ml
[4]
  MCC: > 400 µg/mL
[5]; Example 8
  effectiveness against the virus, conclusion: effective against the virus
[5]; MMdCyd 1.6 μM
  Virus Infectivity (% of virus control): 100 % of virus control
[5]; MMdCyd 3.2 μM
  Virus Infectivity (% of virus control): 99 % of virus control
[5]; MMdCyd 6.4 μM
  Virus Infectivity (% of virus control): 99 % of virus control
[5]; MMdCyd 12.8 μM
  Virus Infectivity (% of virus control): 99 % of virus control
[5]; MMdCyd 25.6 μM
  Virus Infectivity (% of virus control): 99 % of virus control
[5]; MMdCyd 51.2 μM
  Virus Infectivity (% of virus control): 70 % of virus control
[5]; MMdCyd 104 μM
  Virus Infectivity (% of virus control): 55 % of virus control
[5]; MMdCyd 208 μM
  Virus Infectivity (% of virus control): 40 % of virus control
[5]; MMdCyd 416 μM
  Virus Infectivity (% of virus control): 20 % of virus control
[5]; MMdCyd 832 μM
  Virus Infectivity (% of virus control): 10 % of virus control
[5]; less than 26 μM MMdCyd
  virus infectivity after washing of drugs: no decrease in virus infectivity
[6]
  ED50: 6 to 12 µg/mL
[6]; FIG. 6, after preincubating cells 3 hours with 25 μm dUrd, then washing
  ED50: 21 µg/mL (≈ 77.4 µM)
[6]; FIG. 6, with 25 μM dUrd added simultaneously
  ED50: 38 µg/mL (≈ 140 µM)
[6]; HSV-1 76, Vero, 50 PFU, added 4 hours post infection, read-out: ED50 (the source's name)
  EC50: 28 µM
[6]; HSV-1 76, Vero, 50 PFU, added 6 hours post infection, read-out: ED50 (the source's name)
  EC50: 32 µM
[6]; HSV-1 (strain cell empty, under NAH), RK-13, 10 PFU, read-out: ED50 (the source's name)
  EC50: 3 µM
[6]; HSV-1, Vero and HEP-2 cells, read-out: ED50 (the source's name)
  EC50: 14 to 26 µM
[6]; HSV-1 KOS, Vero, 20 PFU, read-out: ED50 (the source's name)
  EC50: 14 µM
[6]; HSV-1 KOS, Vero, 50 PFU, read-out: ED50 (the source's name)
  EC50: 26 µM
[6]; HSV-1 NAH, Vero, 50 PFU, read-out: ED50 (the source's name)
  EC50: 66 µM
[6]; HSV--TK^-
  activity against thymidine kinase negative strain: lack of activity
[6]; Table 11, Vero, HSV-1 KOS and 76, 50-100 PFU, H4 dUrd 12 μg/ml, dGuo 25-30 μg/ml, average
  ED50, average value: 8 µg/mL (≈ 29.5 µM)
[6]; monkey, vero cells
  A.I (antiviral index, MTC divided by ED50): > 125
[6]; read-out: ED50, HSV-1 TK, Vero, 10 PFU, highest concentration tested
  EC50: > 833 µM
[6]; read-out: ED50, HSV-1 TK, Vero, 50 PFU, highest concentration tested
  EC50: > 833 µM
[6]; summary statement
  antiherpes activity: potent and selective antiherpes agent
[6]; treatment delayed 4 to 6 hours post infection
  ED50 on delayed treatment compared with one hour post virus infection: essentially similar
[7]
  MCC: > 1000 µg/mL
[8]
  MCC: > 400 µg/mL
[9]
  MCC: > 400 µg/mL
[10]; HSV-1 76, HEP-2, 50 PFU
  EC50: 22 µM
[10]; HSV-1 (strain cell empty, under NAH), RK-13, 50 PFU
  EC50: 5 µM
[10]; HSV-1 KOS, Vero, 20 PFU, deaminase inhibitor 125 μg/ml, added immediately after infection
  EC50: 12 to 17 µM
[11]
  dATP pool: 8.3 ± 0.32 .rho.moles/10^6 cells
  dCTP pool: 14.2 ± 1.30 .rho.moles/10^6 cells
  dGTP pool: 52 ± 1.84 .rho.moles/10^6 cells
  dTTP pool: 44 ± 1.67 .rho.moles/10^6 cells
[12]
  MCC: > 400 µg/mL
[13]; Example 7
  viral infectivity, conclusion: reduces viral infectivity
[13]; MMdCyd 1.6 μM
  Virus Infectivity (% of virus control): 90 % of virus control
[13]; MMdCyd 3.2 μM
  Virus Infectivity (% of virus control): 80 % of virus control
[13]; MMdCyd 6.4 μM
  Virus Infectivity (% of virus control): 66 % of virus control
[13]; MMdCyd 12.8 μM
  Virus Infectivity (% of virus control): 64 % of virus control
[13]; MMdCyd 25.6 μM
  Virus Infectivity (% of virus control): 45 % of virus control
[13]; MMdCyd 51.2 μM
  Virus Infectivity (% of virus control): 32 % of virus control
[13]; MMdCyd 104 μM
  Virus Infectivity (% of virus control): 20 % of virus control
[13]; MMdCyd 208 μM
  Virus Infectivity (% of virus control): 9 % of virus control
[13]; MMdCyd 416 μM
  Virus Infectivity (% of virus control): 0 % of virus control
[13]; MMdCyd 832 μM
  Virus Infectivity (% of virus control): 0 % of virus control
[13]; combination: MMdCyd >12 μM with H4 dUrd (printed 530 M)
  production of infectious virus particles: significantly decreased
[14]
  MCC: > 400 µg/mL
[15]
  MCC: > 1000 µg/mL
